Test results published in patent US20250382344A1, “Soluble GLP1/GIP/NPY2 Receptor Triple Agonists” (Boehringer Ingelheim International GmH, priority 2024, published 2025).
Changes are numbered by the printed parent chain. Read-outs that look alike come from different tables or passages of the source.

Key:
hGLP1R = molecular target: T1, hGLP1R (Homo sapiens, UniProt P43220); experiment: hGLP1R CreLuc assay in 0.5% and 100% plasma (HEK-293 CRE-luciferase reporter cells); format: cell-based; conditions: HEK-293 reporter cells
T1 construct: expressed in transfected cells; host or cells: HEK-293 CRE-luciferase reporter cells

hGIPR = molecular target: T2, hGIPR (Homo sapiens, UniProt P48546); experiment: hGIPR CreLuc assay in 0.5% and 100% plasma (CHO CRE-luciferase reporter cells); format: cell-based
T2 construct: expressed in transfected cells; host or cells: CHO CRE-luciferase reporter cells
T2 sequence (P48546 22-466): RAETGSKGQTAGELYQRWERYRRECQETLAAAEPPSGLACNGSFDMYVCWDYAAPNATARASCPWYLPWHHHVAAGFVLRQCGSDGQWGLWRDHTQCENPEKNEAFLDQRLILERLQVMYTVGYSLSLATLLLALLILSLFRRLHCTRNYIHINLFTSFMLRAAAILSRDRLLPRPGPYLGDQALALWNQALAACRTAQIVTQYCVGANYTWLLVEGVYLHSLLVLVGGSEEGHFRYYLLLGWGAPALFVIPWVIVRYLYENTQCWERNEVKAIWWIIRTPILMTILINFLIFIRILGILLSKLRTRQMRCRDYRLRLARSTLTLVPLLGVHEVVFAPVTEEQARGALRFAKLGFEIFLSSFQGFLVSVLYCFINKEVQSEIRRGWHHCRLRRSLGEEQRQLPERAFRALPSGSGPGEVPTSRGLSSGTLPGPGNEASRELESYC

hNPY2R = molecular target: T3, hNPY2R (Homo sapiens, UniProt P49146); experiment: hNPY2R CreLuc assay in 0.5% and 100% plasma (HEK-293 CRE-luciferase reporter cells); format: cell-based; conditions: HEK-293 reporter cells
T3 construct: expressed in transfected cells; host or cells: HEK-293 CRE-luciferase reporter cells
T3 sequence (P49146 1-381): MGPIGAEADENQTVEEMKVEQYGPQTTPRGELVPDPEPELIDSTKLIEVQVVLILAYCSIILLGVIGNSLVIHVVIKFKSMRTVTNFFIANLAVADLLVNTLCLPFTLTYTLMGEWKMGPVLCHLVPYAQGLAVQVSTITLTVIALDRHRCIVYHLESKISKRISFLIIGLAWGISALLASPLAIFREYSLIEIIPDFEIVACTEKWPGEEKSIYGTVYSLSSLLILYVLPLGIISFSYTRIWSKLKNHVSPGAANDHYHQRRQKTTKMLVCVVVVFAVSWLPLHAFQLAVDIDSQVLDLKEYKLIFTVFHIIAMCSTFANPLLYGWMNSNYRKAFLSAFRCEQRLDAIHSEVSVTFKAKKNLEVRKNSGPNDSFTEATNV

[1] = Solubility in 0.1 M phosphate buffer at pH 7; format: physicochemical; conditions: 0.1 M phosphate buffer at pH 7, 10 mg/mL final peptide concentration, shaking 2 hours at room temperature, peptides as TFA-salts; measured sample pH 6.5-7.0
[2] = Mouse PK after intravenous application; format: in vivo; conditions: plasma, male NMRI mice, intravenous 30-60 nmol/kg, non-compartmental analysis
Method in brief: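 Male NMRI mice (30–40 g) dosed 30-60 nmol/kg by tail vein in 50 mM phosphate buffer pH 7.4/3.5% mannitol. Saphenous EDTA blood sampled from conscious animals up to 56 h; plasma peptide quantified by LC-MS. Parameters from non-compartmental analysis of individual profiles.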

Normal NMRI Mice = experiment: Effect on acute food intake in normal NMRI mice; format: in vivo; conditions: male NMRI mice, single subcutaneous dose 100 nmol/kg, 24 hours food intake normalized to vehicle group
Method in brief: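 Male NMRI mice (n=8, ≥6 weeks), food locked 8 h before dark phase, given a single subcutaneous dose of peptide 1 h before lights-off. Food intake logged hourly over 24 h by automated HM2 monitoring; vehicle 50 mM phosphate pH 7.4 with 3.5% mannitol.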

human GIP receptor = molecular target: T4, human GIP receptor (human, UniProt P48546 22-466); experiment: cell-based or functional assay
T4 sequence (looked up): T2 sequence (P48546 22-466)

[3] = molecular target: T5, human neuropeptide Y2 receptor (human, UniProt P49146 1-381); experiment: cell-based or functional assay
T5 sequence (looked up): T3 sequence (P49146 1-381)

[4] = 100% human plasma, read-out: hGLP1R 100% hP
[5] = 0.5% human plasma, read-out: hNPY2R 0.5% hP
[6] = 0.5% human plasma, read-out: hGIPR 0.5% hP

T1 sequence (P43220 24-463): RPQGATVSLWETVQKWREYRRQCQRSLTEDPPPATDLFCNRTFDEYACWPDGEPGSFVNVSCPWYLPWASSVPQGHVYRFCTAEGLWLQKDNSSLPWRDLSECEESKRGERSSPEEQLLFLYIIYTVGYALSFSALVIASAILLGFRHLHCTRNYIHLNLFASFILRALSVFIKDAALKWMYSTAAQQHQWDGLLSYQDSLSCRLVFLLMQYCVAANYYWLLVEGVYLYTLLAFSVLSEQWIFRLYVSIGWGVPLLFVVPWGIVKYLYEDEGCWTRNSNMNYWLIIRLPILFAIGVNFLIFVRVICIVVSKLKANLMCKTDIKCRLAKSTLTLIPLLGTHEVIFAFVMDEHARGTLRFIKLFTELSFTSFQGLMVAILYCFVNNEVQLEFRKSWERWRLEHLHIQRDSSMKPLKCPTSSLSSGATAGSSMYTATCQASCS

CC[C@H](C)[C@H](NC(=O)[C@H](Cc1ccccc1)NC(=O)[C@H](C)NC(=O)C(C)(C)NC(=O)[C@H](CCC(N)=O)NC(=O)[C@H](C)NC(=O)[C@H](CCC(N)=O)NC(=O)[C@H](CCCCN)NC(=O)[C@H](CCC(=O)O)NC(=O)[C@H](CC(C)C)NC(=O)[C@](C)(CC(C)C)NC(=O)[C@@H](NC(=O)[C@H](CO)NC(=O)[C@H](Cc1ccc(O)cc1)NC(=O)[C@H](CC(=O)O)NC(=O)[C@H](CO)NC(=O)[C@@H](NC(=O)[C@H](Cc1ccccc1)NC(=O)[C@@H](NC(=O)CNC(=O)[C@H](CCC(=O)O)NC(=O)C(C)(C)NC(=O)[C@@H](N)Cc1ccc(O)cc1)[C@@H](C)O)[C@@H](C)O)[C@@H](C)CC)C(=O)N[C@@H](CCCNC(=N)N)C(=O)N[C@@H](Cc1c[nH]cn1)C(=O)N[C@@H](CC(C)C)C(=O)N[C@H](C(=O)N[C@@H](CC(N)=O)C(=O)N[C@@H](CCCCNC(=O)[C@@H](N)CCCCNC(=O)CC[C@H](NC(=O)CC[C@H](NC(=O)CC[C@H](NC(=O)CC[C@H](NC(=O)CC[C@H](NC(=O)CC[C@H](NC(=O)CCCCCCCCCCCCCCCCC(=O)O)C(=O)O)C(=O)O)C(=O)O)C(=O)O)C(=O)O)C(=O)O)C(=O)NC(C)(C)C(=O)N[C@H](C(=O)N[C@@H](CCCNC(=N)N)C(=O)N[C@@H](CCC(N)=O)C(=O)N[C@@H](CCCNC(=N)N)C(=O)N[C@@H](Cc1ccc(O)cc1)C(N)=O)[C@@H](C)O)[C@@H](C)CC [Compound 76, Y-Aib-E-G-T-F-T-S-D-Y-S-I-aMeL-L-E-K-Q-A-Q-Aib-A-F-I-R-H-L-I-N-K(1,3)-Aib-T-R-Q-R-Y-NH2.C18DA-gGlu-gGlu-gGlu-gGlu-gGlu-gGlu-eLys(1,2)]
EC50 (hGLP1R; [4]): 0.3 nM | EC50 (hGIPR; 100% human plasma, read-out: hGIPR 100% hP): 0.5 nM | EC50 (hNPY2R; [5]): 7.2 nM | solubility at 2 h [1]: 8900 µg/mL | MRT [2]: 6.7 h | Acute Food Intake 24 hours 100 nmol/kg [% CTL] (Normal NMRI Mice): 55 % CTL

CC[C@H](C)[C@H](NC(=O)[C@H](CC(C)C)NC(=O)[C@H](Cc1c[nH]cn1)NC(=O)[C@H](CCCNC(=N)N)NC(=O)[C@@H](NC(=O)[C@H](Cc1ccccc1)NC(=O)[C@H](C)NC(=O)C(C)(C)NC(=O)[C@H](CCC(N)=O)NC(=O)[C@H](C)NC(=O)[C@H](CCC(N)=O)NC(=O)[C@H](CCCCN)NC(=O)[C@H](CCC(=O)O)NC(=O)[C@H](CC(C)C)NC(=O)C(C)(C)NC(=O)[C@@H](NC(=O)[C@H](CO)NC(=O)[C@H](Cc1ccc(O)cc1)NC(=O)[C@H](CC(=O)O)NC(=O)[C@H](CO)NC(=O)[C@@H](NC(=O)[C@H](Cc1ccccc1)NC(=O)[C@@H](NC(=O)CNC(=O)[C@H](CCC(=O)O)NC(=O)C(C)(C)NC(=O)[C@@H](N)Cc1ccc(O)cc1)[C@@H](C)O)[C@@H](C)O)[C@@H](C)CC)C(C)C)C(=O)N[C@@H](CC(N)=O)C(=O)N[C@@H](CCCCNC(=O)[C@@H](N)CCCCNC(=O)CC[C@H](NC(=O)CC[C@H](NC(=O)CC[C@H](NC(=O)CC[C@H](NC(=O)CC[C@H](NC(=O)CC[C@H](NC(=O)CCCCCCCCCCCCCCCCC(=O)O)C(=O)O)C(=O)O)C(=O)O)C(=O)O)C(=O)O)C(=O)O)C(=O)NC(C)(C)C(=O)N[C@H](C(=O)N[C@@H](CCCNC(=N)N)C(=O)N[C@@H](CCC(N)=O)C(=O)N[C@@H](CCCNC(=N)N)C(=O)N[C@@H](Cc1ccc(O)cc1)C(N)=O)[C@@H](C)O [Compound 92, Y-Aib-E-G-T-F-T-S-D-Y-S-I-Aib-L-E-K-Q-A-Q-Aib-A-F-V-R-H-L-I-N-K(1,3)-Aib-T-R-Q-R-Y-NH2.C18DA-gGlu-gGlu-gGlu-gGlu-gGlu-gGlu-eLys(1,2)]
EC50 (hGLP1R; 0.5% human plasma, read-out: hGLP1R 0.5% hP): 0.4 nM | EC50 (hGLP1R; [4]): 2 nM | EC50 (hGIPR; [6]): 0.2 nM | EC50 (hNPY2R; [5]): 9.9 nM | solubility at 2 h [1]: 6700 µg/mL | MRT [2]: 7.5 h | Acute Food Intake 24 hours 100 nmol/kg [% CTL] (Normal NMRI Mice): 58 % CTL

CC[C@H](C)[C@H](NC(=O)[C@H](CC(C)C)NC(=O)[C@H](Cc1c[nH]cn1)NC(=O)[C@H](CCCNC(=N)N)NC(=O)[C@@H](NC(=O)[C@H](Cc1ccccc1)NC(=O)[C@H](C)NC(=O)C(C)(C)NC(=O)[C@H](CCC(N)=O)NC(=O)[C@H](C)NC(=O)[C@H](CCC(N)=O)NC(=O)[C@H](CCCCN)NC(=O)[C@H](CCC(=O)O)NC(=O)[C@H](CC(C)C)NC(=O)C(C)(C)NC(=O)[C@@H](NC(=O)[C@H](CO)NC(=O)[C@H](Cc1ccc(O)cc1)NC(=O)[C@H](CC(=O)O)NC(=O)[C@H](CO)NC(=O)[C@@H](NC(=O)[C@H](Cc1ccccc1)NC(=O)[C@@H](NC(=O)CNC(=O)[C@H](CCC(=O)O)NC(=O)C(C)(C)NC(=O)[C@@H](N)Cc1ccc(O)cc1)[C@@H](C)O)[C@@H](C)O)[C@@H](C)CC)C(C)C)C(=O)N[C@@H](CC(N)=O)C(=O)N[C@@H](CCCCNC(=O)CCCCCNC(=O)CCCCCNC(=O)CC[C@H](NC(=O)CC[C@H](NC(=O)CC[C@H](NC(=O)CC[C@H](NC(=O)CC[C@H](NC(=O)CCCCCCCCCCCCCCCCCCC(=O)O)C(=O)O)C(=O)O)C(=O)O)C(=O)O)C(=O)O)C(=O)NC(C)(C)C(=O)N[C@H](C(=O)N[C@@H](CCCNC(=N)N)C(=O)N[C@@H](CCC(N)=O)C(=O)N[C@@H](CCCNC(=N)N)C(=O)N[C@@H](Cc1ccc(O)cc1)C(N)=O)[C@@H](C)O [Compound 106, Y-Aib-E-G-T-F-T-S-D-Y-S-I-Aib-L-E-K-Q-A-Q-Aib-A-F-V-R-H-L-I-N-K(1,3)-Aib-T-R-Q-R-Y-NH2.C20DA-gGlu-gGlu-gGlu-gGlu-gGlu-AHX-AHX(1,2)]
EC50 (hGIPR; [6]): 0.2 nM | EC50 (hNPY2R; [5]): 7.1 nM | solubility at 2 h [1]: 9200 µg/mL | MRT [2]: 12.8 h | Acute Food Intake 24 hours 100 nmol/kg [% CTL] (Normal NMRI Mice): 60 % CTL

CC[C@H](C)[C@H](NC(=O)[C@H](CC(C)C)NC(=O)[C@H](Cc1c[nH]cn1)NC(=O)[C@H](CCCNC(=N)N)NC(=O)[C@@H](NC(=O)[C@H](Cc1ccccc1)NC(=O)[C@H](C)NC(=O)C(C)(C)NC(=O)[C@H](CCC(N)=O)NC(=O)[C@H](C)NC(=O)[C@H](CCC(N)=O)NC(=O)[C@H](CCCCN)NC(=O)[C@H](CCC(=O)O)NC(=O)[C@H](CC(C)C)NC(=O)C(C)(C)NC(=O)[C@@H](NC(=O)[C@H](CO)NC(=O)[C@H](Cc1ccc(O)cc1)NC(=O)[C@H](CC(=O)O)NC(=O)[C@H](CO)NC(=O)[C@@H](NC(=O)[C@H](Cc1ccccc1)NC(=O)[C@@H](NC(=O)CNC(=O)[C@H](CCC(=O)O)NC(=O)C(C)(C)NC(=O)[C@@H](N)Cc1ccc(O)cc1)[C@@H](C)O)[C@@H](C)O)[C@@H](C)CC)C(C)C)C(=O)N[C@@H](CC(N)=O)C(=O)N[C@@H](CCCCNC(=O)[C@@H](N)CCCCNC(=O)CC[C@H](NC(=O)CC[C@H](NC(=O)CC[C@H](NC(=O)CC[C@H](NC(=O)CC[C@H](NC(=O)CC[C@H](NC(=O)CCCCCCCCCCCCCCCCCCC(=O)O)C(=O)O)C(=O)O)C(=O)O)C(=O)O)C(=O)O)C(=O)O)C(=O)NC(C)(C)C(=O)N[C@H](C(=O)N[C@@H](CCCNC(=N)N)C(=O)N[C@@H](CCC(N)=O)C(=O)N[C@@H](CCCNC(=N)N)C(=O)N[C@@H](Cc1ccc(O)cc1)C(N)=O)[C@@H](C)O [Compound 125, Y-Aib-E-G-T-F-T-S-D-Y-S-I-Aib-L-E-K-Q-A-Q-Aib-A-F-V-R-H-L-I-N-K(1,3)-Aib-T-R-Q-R-Y-NH2.C20DA-gGlu-gGlu-gGlu-gGlu-gGlu-gGlu-eLys(1,2)]
EC50 (hGIPR; [6]): 0.4 nM | EC50 (hNPY2R; 100% human plasma, read-out: hNPY2R 100% hP): 60.8 nM | solubility at 2 h [1]: 6700 µg/mL | MRT [2]: 21.2 h | Acute Food Intake 24 hours 100 nmol/kg [% CTL] (Normal NMRI Mice): 55 % CTL

B1: Compound 171 (peptide)
peptide: YXEGTFTSDYSIXLERQAQXAFVRHLINKXTRQRY
modifications: Aib at positions 2, 13, 20 and 30; Lys 29 epsilon-amino group carries C20DA-gGlu-gGlu-gGlu-gGlu-gGlu-gGlu-eLys; C-terminal amide
EC50, CreLuc luciferase reporter assay, hGIPR 0.5% hP (human GIP receptor): 0.4 nM | EC50, CreLuc luciferase reporter assay, hNPY2R 0.5% hP [3]: 9.9 nM | EC50, CreLuc luciferase reporter assay, hNPY2R 100% hP [3]: 95.3 nM

B2: Compound 176 (peptide)
peptide: B1 peptide with R16K
modifications: Aib at positions 2, 13, 20 and 30; Lys 29 epsilon-amino group carries C20DA-gGlu-gGlu-gGlu-gGlu-gGlu; C-terminal amide
EC50, CreLuc luciferase reporter assay, hNPY2R 100% hP [3]: 457 nM
